Assay results as given in US9073874B2, “Cyclic N,N′-diarylthioureas and N,N′-diarylureas-androgen receptor antagonists, anticancer agent, method for preparation and use thereof” (priority 2010, dated 2015).
“Also recorded” adds a separate entry of the source.

Assays:
[1] = biological target: T1, androgen receptors (Homo sapiens, UniProt P10275, T878A); assay: cell-based; type: cell-based
T1 construct: host or cells: LNCaP
T1 sequence (P10275 1-920 T878A): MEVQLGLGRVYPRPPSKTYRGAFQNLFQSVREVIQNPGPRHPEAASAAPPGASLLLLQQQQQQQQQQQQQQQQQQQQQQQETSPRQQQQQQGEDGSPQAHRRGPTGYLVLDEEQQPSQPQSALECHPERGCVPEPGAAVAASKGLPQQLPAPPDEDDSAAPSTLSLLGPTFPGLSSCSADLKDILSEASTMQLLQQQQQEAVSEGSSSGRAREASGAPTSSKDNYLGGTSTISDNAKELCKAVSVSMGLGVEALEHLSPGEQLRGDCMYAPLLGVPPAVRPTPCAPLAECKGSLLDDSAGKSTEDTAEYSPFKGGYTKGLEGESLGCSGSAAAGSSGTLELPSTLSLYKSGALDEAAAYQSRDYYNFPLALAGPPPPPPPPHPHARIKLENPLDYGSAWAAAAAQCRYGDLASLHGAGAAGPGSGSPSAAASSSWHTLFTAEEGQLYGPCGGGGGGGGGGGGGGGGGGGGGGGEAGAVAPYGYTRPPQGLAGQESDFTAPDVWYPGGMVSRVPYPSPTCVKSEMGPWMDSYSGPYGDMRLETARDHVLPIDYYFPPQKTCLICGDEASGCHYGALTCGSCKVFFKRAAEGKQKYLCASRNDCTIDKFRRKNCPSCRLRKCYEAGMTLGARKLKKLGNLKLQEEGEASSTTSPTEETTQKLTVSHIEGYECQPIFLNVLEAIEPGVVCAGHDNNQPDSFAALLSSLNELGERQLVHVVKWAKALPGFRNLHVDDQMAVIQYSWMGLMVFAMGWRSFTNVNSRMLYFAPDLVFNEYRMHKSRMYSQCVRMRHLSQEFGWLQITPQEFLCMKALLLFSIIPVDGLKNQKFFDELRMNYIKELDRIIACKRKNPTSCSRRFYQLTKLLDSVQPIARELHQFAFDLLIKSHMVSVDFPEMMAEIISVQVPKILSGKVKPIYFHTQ
Protocol: The expression of PSA was measured in the culture medium 24 hours thereafter (FIG. 1). […] The LnCAP cells were cultured for a further 5 days and the number of viable cells was then calculated.
FIG. 1. Inhibition of DHT-stimulated PSA expression in LnCAP cells.
These cells are sensitive towards 5-a-dihydrotestosterone (DHT) and in the presence thereof produce cancer markers (PSA). […] Before the experiment, the cells were washed and suspended in the same medium, in which, however, a serum treated with charcoal for removal of hormone traces was used instead of calf serum. The cells (10 000 in total) were embedded into the wells of 96-well plates at 100 μl per well and left for 4 days in an incubator at 37° C. […] The cells were incubated for a further 5 days under the same conditions. Then, samples of the supracellular medium were taken and analyzed for PSA. The test was carried out according to the protocol recommended by the manufacturer of the kit for PSA measurement (Alpha Diagnostic International, USA). After wetting the wells containing PSA antibodies attached to their bottoms, 25 μl of test compounds and 100 μl of PSA antibodies pre-conjugated to horseradish peroxidase were added successively to each well. Following a 30-minute incubation at room temperature, the content of each well was removed, the wells were washed several times, and 100 μl of a peroxidase chromogenic substrate was then added to each well. […] Based on data about the dependence of DHT-related reduction of PSA synthesis on the concentration of test compounds, dose-response curves were plotted to determine IC50 values. Said values were used for calculating apparent inhibition constants (Ki) for compounds of general formula I according to Cheng-Prusoff equation. [Cheng, Y., Prusoff, W. H. “Relationship between the inhibition constant (Ki) and the concentration of inhibitor which causes 50 percent inhibition (IC50) of an enzymatic reaction”. Biochem Pharmacol.

[2] = test system: CYP 3A; assay: CYP 3A induction assay; type: in vitro ADME
[3] = Distribution in plasma, brain and prostate after single IV administration in rats; type: in vivo; settings: for concentration at 30 min / concentration at 120 min: rat, plasma; for concentration at 30 min / concentration at 120 min / Brain / Plasma / Prostate: Mean ± SD, n = 3
[4] = test system: LnCAP-Z2 tumors; assay: Prostate cancer xenograft model, SCID male mice bearing LnCAP-Z2 tumors; type: in vivo; settings: analysis of individual tumors, 21 days oral
Protocol: SCID male mice bearing LnCAP-Z2 tumors (mean volume˜160-190 mm^3) were treated daily by oral gavage with vehicle or drugs for 21 days. Individual tumor volume change by the end of the study. Percentage of change in individual tumor volumes as compared to the start of treatment.
FIG. 6. […] SCID male mice bearing LnCAP-Z2 tumors (mean volume˜160-190 mm^3) treated daily by oral gavage with vehicle or drugs for 21 days. Individual tumor volume change by the end of the study. Percentage of change in individual tumor volumes compared to the start of treatment.
FIG. 7. […] SCID male mice bearing LnCAP-Z2 tumors (mean volume˜160-190 mm^3) treated daily by oral gavage with vehicle or drugs for 21 days. (A)—Tumor weight by the end of the study. Mean±SEM are presented. […] (B)—PSA expression by the end of the study. Plasma samples were collected 24 hours after the last drug administration. Mean±SEM are presented.
The antitumor efficacy of (R)-1 was tested in a xenograft model of prostate cancer (FIGS. 6 and 7). Male immunodeficient mice harboring LnCAP-Z2 tumors were treated orally for 21 days with either vehicle or (R)-1 at 20 and 50 mg/kg once daily and at 20 mg/kg twice daily. […] Twenty-four hours after last treatment, blood samples were collected from all animals and used for measuring PSA expression and drug concentration. In addition, the concentration of drugs and Ki67 expression were measured in tumor samples.

[5] = Maximum tolerated dose, peroral once a day for 5 days in CD1 male mice; type: in vivo
Protocol: The maximum tolerated doses (MTD) of novel antagonists (R)-1 and their analog Ia were determined in experiments on CD1 male mice at peroral administration once a day for 5 days in doses of 10, 30, and 100 mg/kg. The compound was dissolved in sterile water with addition of Tween 80. Sterile water with Tween 80 was given to control animals (Placebo group). Animals' body weight and mortality rate were estimated. Statistical comparison of groups was carried out according to a non-parametric ANOVA test using Statistica software.

[6] = CD1 male mice, peroral, 100 mg/kg

For `CNC(=O)c1ccc(N2C(=S)N(c3ccc(C#N)c(C(F)(F)F)c3)C(=O)[C@@]23CCOC3)cc1F` [(S)-1], the Ki [1] was 215 nM.
With `CNC(=O)c1ccc(N2C(=S)N(c3cnc(C#N)c(C(F)(F)F)c3)C(=O)C23CCC3)cc1F` [III] the “Positive control, % (CYP 3A induction)” value ([2]; Concentration 1 μM) was 16.3 ± 2.5%, the “Positive control, % (CYP 3A induction)” value ([2]; Concentration 10 μM) was 102.7 ± 13.0% and the concentration at 30 min ([3]; single IV 1 mg/kg, 30 min) was 251 ± 29 ng/mL. For the same molecule, the concentration at 120 min ([3]; single IV 1 mg/kg, 120 min) was 153 ± 10 ng/mL, the Brain/Plasma ([3]; single IV 1 mg/kg, 30 min) was 0.96 ± 0.03 and the Prostate/Plasma ([3]; single IV 1 mg/kg, 30 min) was 1.94 ± 0.24. It also gave a Brain ([3]; single IV 1 mg/kg, 30 min) of 241 ± 21 ng/g, a Plasma ([3]; single IV 1 mg/kg, 30 min) of 251 ± 29 ng/mL and a Prostate ([3]; single IV 1 mg/kg, 30 min) of 487 ± 73 ng/g. The Brain/Plasma ([3]; single IV 1 mg/kg, 120 min) was 1.15 ± 0.27, the Prostate/Plasma ([3]; single IV 1 mg/kg, 120 min) was 3.15 ± 0.94 and the Brain ([3]; single IV 1 mg/kg, 120 min) was 176 ± 31 ng/g. For the same molecule, the Plasma ([3]; single IV 1 mg/kg, 120 min) was 153 ± 10 ng/mL and the Prostate ([3]; single IV 1 mg/kg, 120 min) was 482 ± 120 ng/g.
In the case of `CNC(=O)c1ccc(N2C(=S)N(c3ccc(C#N)c(C(F)(F)F)c3)C(=O)C2(C)C)cc1F` [Ia, MDV3100], the “Positive control, % (CYP 3A induction)” value ([2]; Concentration 1 μM) is reported as 10.0 ± 2.0%, the “Positive control, % (CYP 3A induction)” value ([2]; Concentration 10 μM) is reported as 73.3 ± 6.8% and the “effect on individual tumors (in words)” value [4] is reported as “stimulate tumor regression”. The MTD at 5 days ([5]; CD1, mouse, in vivo, oral, male CD-1 mice, peroral once a day for 5 days) was roughly 30 mg/kg, the “p, body weight versus Placebo group” value ([5]; CD1 male mice, 100 mg/kg, 5th day) was 0.002 and the “body weight versus control animals (Placebo group)” value [5, 6] was “statistically differed”. For the same molecule, the mortality [5, 6] was “One animal died”, the mortality ([5]; CD1 male mice, peroral, doses below 100 mg/kg (10 and 30 mg/kg)) was “did not lead to death; also recorded: did not cause death” and the “maximum tolerated dose (MTD)” value ([5]; male CD-1 mice, peroral once a day for 5 days) was “about 30 mg/kg”. It also gave a concentration at 30 min ([3]; single IV 2 mg/kg, 30 min) of 263 ± 19 ng/mL, a concentration at 120 min ([3]; single IV 2 mg/kg, 120 min) of 377 ± 153 ng/mL and a Brain ([3]; single IV 2 mg/kg, 30 min) of 164 ± 19 ng/g. The Plasma ([3]; single IV 2 mg/kg, 30 min) was 263 ± 19 ng/mL, the Prostate ([3]; single IV 2 mg/kg, 30 min) was 102 ± 4 ng/g and the Brain ([3]; single IV 2 mg/kg, 120 min) was 152 ± 31 ng/g. The Plasma ([3]; single IV 2 mg/kg, 120 min) was 377 ± 153 ng/mL and the Prostate ([3]; single IV 2 mg/kg, 120 min) was 124 ± 27 ng/g.
With `CNC(=O)c1ccc(N2C(=S)N(c3ccc(C#N)c(C(F)(F)F)c3)C(=O)C23CCOC3)cc1F` (racemic) [compound 1, 4-[3-(4-Cyano-3-trifluoromethyl-phenyl)-4-oxo-2-thioxo-7-oxa-1,3-diaza-spiro[4.4]non-1-yl]-2-fluoro-N-methyl-benzamide] the “AR antagonistic activity (in words)” value [1] was “comparable with that of Ia”.
